{"source": "ChEMBL document CHEMBL1914398", "about": "“Synthesis and evaluation of novel N-fluoropyridyl derivatives of tropane as potential PET imaging agents for the dopamine transporter” (Bioorg Med Chem Lett, 2011)", "key": {"[1]": {"target": "Sodium-dependent noradrenaline transporter (Homo sapiens, UniProt P23975)", "sequence (P23975 whole entry)": "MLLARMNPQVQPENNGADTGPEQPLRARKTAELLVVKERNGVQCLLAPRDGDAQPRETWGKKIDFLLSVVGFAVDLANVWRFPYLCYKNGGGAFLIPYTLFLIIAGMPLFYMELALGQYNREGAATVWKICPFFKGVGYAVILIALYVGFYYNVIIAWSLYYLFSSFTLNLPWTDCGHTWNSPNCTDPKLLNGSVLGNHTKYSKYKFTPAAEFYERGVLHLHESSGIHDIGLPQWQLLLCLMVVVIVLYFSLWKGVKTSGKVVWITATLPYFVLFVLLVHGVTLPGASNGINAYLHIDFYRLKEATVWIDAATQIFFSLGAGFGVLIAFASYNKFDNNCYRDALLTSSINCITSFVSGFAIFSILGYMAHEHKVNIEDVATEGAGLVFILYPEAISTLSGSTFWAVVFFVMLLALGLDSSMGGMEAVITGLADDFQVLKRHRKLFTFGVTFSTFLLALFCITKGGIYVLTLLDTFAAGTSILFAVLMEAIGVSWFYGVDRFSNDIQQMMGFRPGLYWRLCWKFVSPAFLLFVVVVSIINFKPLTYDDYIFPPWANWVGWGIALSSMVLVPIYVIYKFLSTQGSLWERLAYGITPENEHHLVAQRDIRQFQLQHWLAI", "test": "Displacement of [125I]-INXT from NET transfected in pig LLC-PK1 cells by radioligand competition binding assay", "format": "cell-based"}, "[2]": {"target": "Sodium-dependent serotonin transporter (Homo sapiens, UniProt P31645)", "sequence (P31645 whole entry)": "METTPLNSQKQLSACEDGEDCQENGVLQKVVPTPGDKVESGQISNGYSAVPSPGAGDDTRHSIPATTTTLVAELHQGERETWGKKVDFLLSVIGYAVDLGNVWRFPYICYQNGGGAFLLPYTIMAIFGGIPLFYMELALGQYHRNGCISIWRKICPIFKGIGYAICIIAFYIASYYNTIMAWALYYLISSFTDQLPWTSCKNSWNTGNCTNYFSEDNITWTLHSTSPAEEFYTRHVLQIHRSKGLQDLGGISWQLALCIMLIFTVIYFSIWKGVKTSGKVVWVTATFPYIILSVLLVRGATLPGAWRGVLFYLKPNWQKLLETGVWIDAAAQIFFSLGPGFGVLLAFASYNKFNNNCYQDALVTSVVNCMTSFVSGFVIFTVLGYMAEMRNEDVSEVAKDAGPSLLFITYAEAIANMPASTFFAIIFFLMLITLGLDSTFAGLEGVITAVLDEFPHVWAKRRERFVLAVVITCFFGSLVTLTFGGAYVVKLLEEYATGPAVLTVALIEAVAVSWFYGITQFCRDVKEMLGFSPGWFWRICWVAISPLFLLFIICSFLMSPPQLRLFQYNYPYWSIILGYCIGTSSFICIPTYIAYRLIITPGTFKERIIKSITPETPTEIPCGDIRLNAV", "test": "Displacement of [125I]-IDAM from SERT transfected in pig LLC-PK1 cells by radioligand competition binding assay", "format": "cell-based"}, "[3]": {"test": "Selectivity ratio of Ki for SERT to Ki for DAT"}, "[4]": {"test": "Selectivity ratio of Ki for NET to Ki for DAT"}, "[5]": {"target": "Sodium-dependent dopamine transporter (Homo sapiens, UniProt Q01959)", "sequence (Q01959 whole entry)": "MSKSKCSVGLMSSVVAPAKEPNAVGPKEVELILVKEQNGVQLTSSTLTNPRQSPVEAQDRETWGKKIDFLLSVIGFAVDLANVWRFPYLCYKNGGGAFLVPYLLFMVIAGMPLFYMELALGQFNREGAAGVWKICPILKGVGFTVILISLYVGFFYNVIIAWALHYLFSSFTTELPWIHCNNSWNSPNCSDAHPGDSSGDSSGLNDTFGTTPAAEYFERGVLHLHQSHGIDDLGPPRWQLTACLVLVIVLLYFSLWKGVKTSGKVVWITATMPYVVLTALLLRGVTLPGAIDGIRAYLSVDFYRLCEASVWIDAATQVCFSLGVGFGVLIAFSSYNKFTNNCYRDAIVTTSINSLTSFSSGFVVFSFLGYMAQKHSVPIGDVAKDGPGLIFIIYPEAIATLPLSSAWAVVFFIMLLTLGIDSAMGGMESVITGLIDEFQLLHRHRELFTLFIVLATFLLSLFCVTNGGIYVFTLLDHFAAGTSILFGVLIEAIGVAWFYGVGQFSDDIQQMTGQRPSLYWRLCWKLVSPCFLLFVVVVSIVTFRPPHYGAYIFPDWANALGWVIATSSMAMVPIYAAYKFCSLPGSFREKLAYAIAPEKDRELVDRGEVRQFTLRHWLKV", "test": "Displacement of [125I]-IPT from DAT transfected in pig LLC-PK1 cells by radioligand competition binding assay", "format": "cell-based"}}}
{"smiles": "COC(=O)[C@H]1[C@@H](c2ccc(F)cc2)C[C@H]2CC[C@H]1N2C", "values": [{"measurement": "Ki", "setting": "[1]", "value": 635, "unit": "nM"}, {"measurement": "Ki", "setting": "[2]", "value": 181, "unit": "nM"}]}
{"smiles": "CN1C2CCC1[C@@H](C(=O)Nc1cccc(F)n1)[C@@H](c1ccc(Cl)cc1)C2", "note": "(some centres not stated)", "values": [{"measurement": "Ratio Ki", "setting": "[3]", "value": 229}, {"measurement": "Ratio Ki", "setting": "[4]", "value": 133}, {"measurement": "Ki", "setting": "[1]", "value": 16900, "unit": "nM"}, {"measurement": "Ki", "setting": "[2]", "value": 29100, "unit": "nM"}, {"measurement": "Ki", "setting": "[5]", "value": 127, "unit": "nM"}]}
{"smiles": "CN1C2CCC1[C@@H](CNc1ccnc(Br)c1)[C@@H](c1ccc(Cl)cc1)C2", "note": "(some centres not stated)", "values": [{"measurement": "Ratio Ki", "setting": "[3]", "value": 1.4}, {"measurement": "Ratio Ki", "setting": "[4]", "value": 3.5}, {"measurement": "Ki", "setting": "[1]", "value": 27.7, "unit": "nM"}, {"measurement": "Ki", "setting": "[2]", "value": 11, "unit": "nM"}, {"measurement": "Ki", "setting": "[5]", "value": 7.9, "unit": "nM"}]}
